Columns and labels:
Candida albicans Olomouc = details: for Antimicrobial activity MIC C. a. Olomouc: Candida albicans Olomouc, YPD medium, 37° C., 20 h (Example 2)
Experimental: (§1) Gram-positive bacteria (Micrococcus luteus, Bacillus subtilis, Staphylococcus aureus, Staphylococcus epidermidis and Enterococcus faecalis), Gram-negative bacteria (Escherichia coli and Pseudomonas aeruginosa) and the yeast (Candida albicans) were grown to exponential phase and then were diluted with fresh medium. BHI medium (Oxoid, Great Britain) was used for Enterococcus faecalis; YPD medium containing yeast extract peptone and glucose was used for Candida albicans and LB medium (Sigma, Czech Republic) was used for the remaining microorganisms. Then the microorganisms were added to the solutions of the tested antimicrobial peptides in LB medium in multi-well plates. The final peptide concentration it the wells was in the range of 0.1 to 100 μmol.l^−1. That was made by twofold serial dilution from the peptide stock solution (1 mmol.l^−1). The plates were incubated at 37° C. for 20 h while being continuously shaken in a Bioscreen C (Oy Growth Curves AB Ltd., Helsinki, Finland). Absorbance was measured at 540 nm every 15 min. Antimicrobial activity (Table 2) was determined as a quantitative minimum inhibitory concentration (MIC) by observing bacterial growth in the presence of different concentrations of tested peptides. In the experiments ca 10^5 CFU of bacteria or candida per well were routinely used.
(§2) Multiresistant clinical isolates of bacteria were obtained from University Hospital in Motol, Prague, Czech Republic and from Liberec Regional Hospital, Czech Republic. Methicillin resistant Staphylococcus aureus (MRSA) 6271 and Pseudomonas aeruginosa 5482 were from the Czech National Collection of Type Cultures, the National Institute of Public Health, Prague, Czech Republic. Other bacteria were from the Czech Collection of Microorganisms, Brno, Czech Republic. Candida albicans came from the Faculty of Medicine, Palacky University, Olomouc, Czech Republic.

[1] = test system: Pseudomonas aeruginosa Liberec; details: for Antimicrobial activity MIC P. a. Liberec: Pseudomonas aeruginosa Liberec, 37° C., 20 h
Experimental: as §1, §2

Bacillus subtilis = details: for Antimicrobial activity MIC B. s.: Bacillus subtilis, 37° C., 20 h
Experimental: as §1, §2

[2] = test system: Staphylococcus aureus Liberec; details: for Antimicrobial activity MIC S. a. Liberec: Staphylococcus aureus Liberec clinical isolate, 37° C., 20 h
Experimental: as §1, §2

Micrococcus luteus = test system: Micrococcus luteus
Experimental: as §1, §2

[3] = test system: Pseudomonas aeruginosa 5482; details: 37° C., 20 h
Experimental: as §1, §2

[4] = test system: Staphylococcus aureus Motol; details: Staphylococcus aureus Motol clinical isolate; 37° C., 20 h
Experimental: as §1, §2

[5] = test system: Staphylococcus epidermidis Motol; details: 37° C., 20 h
Experimental: as §1, §2

[6] = test system: Methicillin resistant Staphylococcus aureus (MRSA) 6271; details: 37° C., 20 h
Experimental: as §1, §2

[7] = test system: Enterococcus faecalis Motol; details: BHI medium, 37° C., 20 h
Experimental: as §1, §2

Escherichia coli = details: 37° C., 20 h
Experimental: as §1, §2

[8] = test system: Candida albicans ATCC MYA-2876; assay: microbe, parasite or virus in culture; assay type: cell-based; details: RPMI broth microdilution, 35° C., 48 hours, visual
Experimental: (§3) All yeasts Candida albicans (Olomouc) and ATCC MYA-2876, Candida glabrata ATCC 2001 and DSY 565, Candida dubliniensis ATCC MYA-646, Candida krusei ATCC 6258 and Candida tropicalis ATCC 750 were sub-cultured from sterile vials onto Sabouraud dextrose agar, which was composed of 40 g dextrose (Penta, Czech Republic), 10 g peptone (OXOID, Great Britain) and 17 g agar (OXOID), dissolved in 1 l of distilled water, and cultivated for 24 hours at 35° C.
(§4) All strains were stored in a way that minimizes the possibility of mutation. Candida spp. were grown overnight in liquid YPD medium which is composed of 10 g yeast extract (DIFCO, USA), 20 g peptone (OXOID), and 20 g dextrose (Penta) dissolved in 1 l distilled water. Then the overnight culture was cryogenically preserved by suspending in 50% glycerol solution (1:1) in small vials and stored at −80° C.
(§5) The inoculum was prepared by picking five colonies from 24-hour-old cultures of Candida spp. The colonies were suspended in 1 ml of sterile saline solution and vortexed for 15 seconds. Optical density of the suspension was adjusted spectrophotometrically by adding sterile saline solution to produce optical density of 0.18 at 600 nm. A working suspension was made by a 1:50 dilution followed by a 1:20 dilution of the stock suspension with RPMI 1640 broth medium which was composed of L-glutamine without NaHCO3 (BioSera, France), and with 0.165 mol.l^−1 MOPS (Duchefa, Netherland)—further as RPMI broth medium.
(§6) The broth microdilution test was performed by using sterile, disposable, multi-well microdilution plates (96-well). The peptides in the concentrations 0.625-160 μmol.l^−1 were pipetted into the wells in 100 μl volumes. Each well of the plate was inoculated with 100 μl of the diluted inoculum suspension. Final yeast density in each well was 5×10^2 up to 2.5×10^3 CFU/ml. The microdilution plates were incubated without shaking at 35° C. and observed for the presence or absence of visible growth for 48 hours.
(§7) Drug-free medium without inoculation served as negative control; the growth positive control contained inoculated drug-free medium. Amphotericin B was used as control drug to ensure quality of Candida strains.
(§8) The minimal inhibition concentrations (MICs) were visually determined 48 hours after inoculation. The MIC values were defined as the lowest concentration in which no observable growth is noticeable.
(§9) All yeast isolates were obtained from the Institute of Physiology of the Academy of Sciences of the Czech Republic. Candida albicans (Olomouc) came from the Faculty of Medicine and Dentistry, Palacý University Olomouc.

[9] = test system: Candida glabrata ATCC 2001; assay: microbe, parasite or virus in culture; assay type: cell-based; details: RPMI broth microdilution, 35° C., 48 hours, visual
Experimental: as §3, §4, §5, §6, §7, §8, §9

[10] = test system: Candida albicans (Olomouc); assay: microbe, parasite or virus in culture; assay type: cell-based; details: RPMI broth microdilution, 35° C., 48 hours, visual
Experimental: as §3, §4, §5, §6, §7, §8, §9

Candida glabrata DSY 565 = assay: microbe, parasite or virus in culture; assay type: cell-based; details: RPMI broth microdilution, 35° C., 48 hours, visual
Experimental: as §3, §4, §5, §6, §7, §8, §9

[11] = test system: Candida tropicalis ATCC 750; assay: microbe, parasite or virus in culture; assay type: cell-based; details: RPMI broth microdilution, 35° C., 48 hours, visual
Experimental: as §3, §4, §5, §6, §7, §8, §9

[12] = test system: Candida dubliniensis ATCC MYA-646; assay: microbe, parasite or virus in culture; assay type: cell-based; details: RPMI broth microdilution, 35° C., 48 hours, visual
Experimental: as §3, §4, §5, §6, §7, §8, §9

Candida krusei ATCC 6258 = assay: microbe, parasite or virus in culture; assay type: cell-based; details: RPMI broth microdilution, 35° C., 48 hours, visual
Experimental: as §3, §4, §5, §6, §7, §8, §9

P. aeruginosa (Liberec) = assay: Synergistic effect of peptides with antibiotics, FIC index; assay type: cell-based, Pseudomonas aeruginosa; details: FIC <0.5 synergism, 0.5-2 additive, >2 antagonism, averages of three experiments; for FIC indexes (fractional inhibitory concentration) Combination with RIF against P. aeruginosa: peptide combined with rifampicin; for FIC indexes (fractional inhibitory concentration) Combination with TET against P. aeruginosa: peptide combined with tetracycline
Experimental: MICs values of various combinations of two fold serial dilutions of peptides and antibiotics were determined using the same methodology as in the case of antimicrobial activity determination (Example 2). To consider the type of the final effect, FIC indexes (fractional inhibitory concentration) were used and calculated as follows:
[formula] where MICPC and MICAC are the MICs of the peptide and antibiotic in combination, respectively, and MICP and MICA are the MICs of the peptide and antibiotic tested alone, respectively. FIC<0.5 were considered as synergy, 0.5≤FIC≤2 as addition effect, and FIC>2 as antagonism.

in vitro = details: human
Method in brief: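 Peptides at 2-200 μmol.l^−1 incubated 1 h at 37 °C with 5% v/v human erythrocyte suspension in physiological solution. Released haemoglobin in supernatant read at 540 nm against buffer (0%) and 0.2% Triton X100 (100%) lysis controls. LC50 is the peptide concentration lysing 50% of cells.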

[13] = synthetically prepared hylanine, in words

| Molecule | Antimicrobial activity MIC C. a. Olomouc (Candida albicans Olomouc) [µM] | Antimicrobial activity MIC P. a. Liberec [1] [µM] | Antimicrobial activity MIC P. a. 5482 [3] [µM] | Antimicrobial activity MIC S. a. Motol [4] [µM] | Antimicrobial activity MIC S. e. Motol [5] [µM] | Antimicrobial activity MIC B. s. (Bacillus subtilis) [µM] | Antimicrobial activity MIC S. a. 6271 [6] [µM] | Antimicrobial activity MIC E. f. Motol [7] [µM] | Antimicrobial activity MIC S. a. Liberec [2] [µM] | Antimicrobial activity MIC E. c. (Escherichia coli) [µM] | Antifungal activity MIC C. albicans ATCC MYA-2876 [8] [µM] | Antifungal activity MIC C. glabrata ATCC 2001 [9] [µM] | Antifungal activity MIC C. albicans Olomouc [10] [µM] | Antifungal activity MIC C. glabrata DSY 565 (Candida glabrata DSY 565) [µM] | Antifungal activity MIC C. tropicalis ATCC 750 [11] [µM] | Antifungal activity MIC C. dubliniensis ATCC MYA-646 [12] [µM] | Antifungal activity MIC C. krusei ATCC 6258 (Candida krusei ATCC 6258) [µM] | FIC indexes (fractional inhibitory concentration) Combination with RIF against P. aeruginosa (P. aeruginosa (Liberec)) | FIC indexes (fractional inhibitory concentration) Combination with TET against P. aeruginosa (P. aeruginosa (Liberec)) | HC50 at 1 h (in vitro) [µM] | other results |
| --- | --- | --- | --- | --- | --- | --- | --- | --- | --- | --- | --- | --- | --- | --- | --- | --- | --- | --- | --- | --- | --- |
| H-GIMSSLMKKLAAHIAK-NH2 [hylanine, reference compound] | – | – | – | – | – | – | – | – | – | – | – | – | – | – | – | – | – | – | – | – | activity against the yeast Candida albicans (Candida albicans Olomouc; [13]): moderate activity; activity against Pseudomonas aeruginosa ([1]; all strains, in words): weak; antimicrobial activity against Bacillus subtilis (Bacillus subtilis; [13]): high antimicrobial activity; activity against Staphylococcus aureus ([2]; all strains of pathogenic Staphylococcus aureus, in words): weak; antimicrobial activity against Micrococcus luteus (Micrococcus luteus; [13]): high antimicrobial activity |
| H-GILSSLWKKLKKWIAK-NH2 [XVII] | 12.7 | 24.1 | 12.7 | 2.0 | 1.6 | 1.3 | 2.5 | 10.0 | 1.6 | 2.5 | 5.5 | 5.5 | 4.5 | 11.0 | 0.8 | 5.0 | 3.3 | 0.292 | 0.417 | 57.2 | – |
| CN(C)[C@@H]1C(=O)C(C(N)=O)=C(O)[C@@]2(O)C(=O)C3=C(O)c4c(O)cccc4[C@@](C)(O)[C@H]3C[C@@H]12 [Tetracyklin, Tetracycline, reference compound] | – | 70.4 | 28.7 | 2.0 | >100 | 16.0 | 0.9 | 40.0 | 1.1 | 2.7 | – | – | – | – | – | – | – | – | – | – | Antimicrobial activity MIC M. l. (Micrococcus luteus; Micrococcus luteus, 37° C., 20 h): 0.8 µM |
| H-GILSSLLKKLKKWIAK-NH2 [XVIII] | 16.0 | 20.7 | 8.0 | 4.0 | 1.6 | 1.3 | 8.0 | 25.3 | 2.5 | 4.0 | 10.0 | 8.5 | 8.5 | 24.0 | 1.2 | 10.0 | 7.8 | 0.271 | 0.625 | 160 | – |

— US10160785B2, “Antimicrobial peptides and their use for the treatment of topical infections” (priority 2015, dated 2018)
